# Experimental data from the supplement of paper PMC10307832.
# How the values were obtained:
# Experiment in all cases: relative viability (nuclei count vs DMSO), 5 days (fraction); higher = more cells survive
# [1] = compound: CCn1c(-c2nonc2N)nc2cnc(Oc3cccc(NC(=O)c4ccc(OCCN5CCOCC5)cc4)c3)cc21 + N=C(N)NC(=N)NCCc1ccccc1 [Phenformin] (partner 250 µM)
# Method in brief: (§1)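 Dosing by pin tool came one day after lung cancer cell lines were seeded in 1536-well plates, using either one drug or a fixed anchor-drug dose plus five library-drug doses (not always all listed) in √10 steps. After 5 days, nuclei were counted on 4× images. Relative viability is treated-well nuclei count divided by vehicle-well nuclei count, and values are medians of duplicate plates.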
# [2] = compound: CCn1c(-c2nonc2N)nc2cnc(Oc3cccc(NC(=O)c4ccc(OCCN5CCOCC5)cc4)c3)cc21 + Nc1ncn([C@H]2C[C@H](O)[C@@H](CO)O2)c(=O)n1 [Decitabine] (partner 2 µM)
# Method in brief: as §1
# Mirin + Trametinib = compound: N=C1NC(=O)/C(=C/c2ccc(O)cc2)S1 [Mirin] + CC(=O)Nc1cccc(-n2c(=O)n(C3CC3)c(=O)c3c(Nc4ccc(I)cc4F)n(C)c(=O)c(C)c32)c1 [Trametinib] (partner 0.02 µM)
# Method in brief: as §1
# [3] = compound: CCC1=CN=CN=C1N2CCN(CC2)CC3=NC4=C(N3)C=C(C=C4)C(F)(F)F + CCNC(=O)c1noc(-c2cc(C(C)C)c(O)cc2O)c1-c1ccc(CN2CCOCC2)cc1 [Luminespib] (partner 0.01 µM)
# Method in brief: as §1
cell line,measurement,setting,value
UMC-11,relative viability,[1]; first compound 0.04 µM,0.304
same,relative viability,[1]; first compound 0.1265 µM,0.25
same,relative viability,[1]; first compound 0.4 µM,0.198
same,relative viability,[1]; first compound 1.265 µM,0.225
same,relative viability,[1]; first compound 4 µM,0.129
same,relative viability,[2]; first compound 0.04 µM,0.596
same,relative viability,[2]; first compound 0.1265 µM,0.528
same,relative viability,[2]; first compound 0.4 µM,0.423
same,relative viability,[2]; first compound 1.265 µM,0.125
same,relative viability,[2]; first compound 4 µM,0.269
same,relative viability,Mirin + Trametinib; first compound 0.25 µM,0.721
same,relative viability,Mirin + Trametinib; first compound 0.7906 µM,0.381
same,relative viability,Mirin + Trametinib; first compound 2.5 µM,0.778
same,relative viability,Mirin + Trametinib; first compound 7.906 µM,0.558
same,relative viability,Mirin + Trametinib; first compound 25 µM,0.496
same,relative viability,[3]; first compound 0.04 µM,0.974
same,relative viability,[3]; first compound 0.1265 µM,1.05
same,relative viability,[3]; first compound 0.4 µM,0.917
same,relative viability,[3]; first compound 1.265 µM,0.902
same,relative viability,[3]; first compound 4 µM,0.746
